Results as given in ChEMBL document CHEMBL6109079, “Discovery of novel pyrimidinetrione derivatives as DprE1 inhibitors with potent antimycobacterial activities” (Eur J Med Chem, 2025).
In brackets after ≈: the same amount, converted by molar mass. Activity calls are given as the source filed them. The rule behind the calls is not given here.

Tests used:
[1] = Inhibition of DprE1 (unknown origin) preincubated with FAD followed by compound addition and measured after 2 mins by fluorescence based microplate reader; parameters: species or system Bacteria
[2] = tested on: Mycobacterium tuberculosis; assay: Antibacterial activity against Mycobacterium tuberculosis H37Ra assessed as inhibition of bacterial growth at 50 uM incubated for 3 weeks by absorbance based microplate reader relative to control; assay type: functional; conditions: 504 h
[3] = tested on: Mycobacterium tuberculosis; assay: Antibacterial activity against Mycobacterium tuberculosis H37Ra assessed as inhibition of bacterial growth incubated for 1 weeks by absorbance based microplate reader; assay type: functional; conditions: 168 h
[4] = tested on: Mycobacterium tuberculosis; assay: Antibacterial activity against Mycobacterium tuberculosis H37Ra assessed as inhibition of bacterial growth at 10 uM incubated for 3 weeks by absorbance based microplate reader relative to control; assay type: functional; conditions: 504 h
[5] = tested on: Mycobacterium tuberculosis; assay: Antibacterial activity against Mycobacterium tuberculosis H37Rv assessed as inhibition of bacterial growth at 10 uM incubated for 3 weeks by absorbance based microplate reader relative to control; assay type: functional; conditions: 504 h
[6] = Cytotoxicity against human THP-1 cells assessed as cell viability at 200 uM incubated for 24 hrs by CCK-8 assay relative to control; assay type: toxicity, cell-based; conditions: read-out: Activity
[7] = Cytotoxicity against human THP-1 cells assessed as reduction in cell viability incubated for 24 hrs by CCK-8 assay; assay type: toxicity, cell-based
[8] = Selectivity index, ratio of CC50 for cytotoxicity against human THP-1 cells to MIC50 for antibacterial activity against Mycobacterium tuberculosis H37Ra; assay type: toxicity, cell-based; conditions: read-out: Selectivity Index
[9] = tested on: Mycobacterium tuberculosis; assay: Antibacterial activity against Mycobacterium tuberculosis H37Ra infected in PMA-differentiated human THP-1 cells assessed as reduction in colony forming units measured after 3 weeks by absorbance based assay; assay type: functional, organism-based; conditions: dose 10-100 µM
[10] = tested on: Mycobacterium tuberculosis; assay: Antibacterial activity against Mycobacterium tuberculosis H37Rv infected in PMA-differentiated human THP-1 cells assessed as reduction in colony forming units at 100 uM measured after 3 weeks by absorbance based assay; assay type: functional, organism-based
[11] = Binding affinity to recombinant DprE1 (unknown origin) assessed as dissociation constant incubated for 10 mins by MST analysis; parameters: species or system Bacteria

## CC(=O)NN/C=C1\C(=O)NC(=O)N(Cc2ccccc2)C1=O
[1]
  IC50: > 100 µM

## CCOCC(=O)NN/C=C1\C(=O)NC(=O)N(Cc2ccccc2)C1=O
[1]
  IC50: > 100 µM

## CC(=O)Nc1cccc(C(=O)NN/C=C2\C(=O)NC(=O)N(Cc3ccccc3)C2=O)c1
[1]
  IC50: 20.7 µM

## O=C1NC(=O)N(Cc2ccccc2)C(=O)/C1=C/NNC(=O)c1ccccc1
[1]
  IC50: 7.25 µM

## O=C1NC(=O)N(Cc2ccccc2)C(=O)/C1=C/NNC(=O)c1cccc([N+](=O)[O-])c1
[1]
  IC50: 42.5 µM

## C#CCN1C(=O)NC(=O)/C(=C\NNC(=O)c2ccncc2)C1=O
[1]
  IC50: 12.7 µM
[2]
  inhibition at 50 µM: 100%
[3]
  MIC50: 1.07 µM (≈ 0.336 µg/mL)
[4]
  inhibition at 10 µM: 100%
[5]
  inhibition at 10 µM: 100%
[6]
  viability at 24 h, 200 µM: 100%
[7]
  CC50 at 24 h: > 200 µM
[8]
  selectivity ratio: > 187
[9]
  Activity: Dose-dependent-effect; Best Bactericidal Effect Observed
[10]
  Activity: Active
[11]
  Kd: 68 nM

## COc1cccc(C(=O)NN/C=C2\C(=O)NC(=O)N(Cc3ccccc3)C2=O)c1
[1]
  IC50: 6.53 µM

## CC(=O)Nc1ccc(C(=O)NN/C=C2\C(=O)NC(=O)N(Cc3ccccc3)C2=O)cc1
[1]
  IC50: 27.6 µM

## Cc1ccc(S(=O)(=O)C(=O)NN/C=C2\C(=O)NC(=O)N(Cc3ccccc3)C2=O)cc1
[1]
  IC50: 62 µM

## CC[C@@H](C)N1C(=O)NC(=O)/C(=C\NNC(=O)c2ccccc2)C1=O
[1]
  IC50: 13.4 µM

## COCC(=O)NN/C=C1\C(=O)NC(=O)N(Cc2ccccc2)C1=O
[1]
  IC50: > 100 µM

## CC(C)N1C(=O)NC(=O)/C(=C\NNC(=O)c2ccncc2)C1=O
[1]
  IC50: 47.4 µM
[2]
  inhibition at 50 µM: 100%
[3]
  MIC50: 1.75 µM (≈ 0.555 µg/mL)
[4]
  inhibition at 10 µM: 100%
[5]
  inhibition at 10 µM: 100%
[6]
  viability at 24 h, 200 µM: 100%
[7]
  CC50 at 24 h: > 200 µM
[8]
  selectivity ratio: > 114

## C=CCN1C(=O)C(=CNNC(=O)c2ccncc2)C(=O)N(CC=C)C1=O
[1]
  IC50: > 100 µM
[2]
  inhibition at 50 µM: 100%
[3]
  MIC50: 2.89 µM (≈ 1.03 µg/mL)
[4]
  inhibition at 10 µM: 100%
[5]
  inhibition at 10 µM: 100%
[6]
  viability at 24 h, 200 µM: 100%
[7]
  CC50 at 24 h: > 200 µM
[8]
  selectivity ratio: > 69.2

## CC(C)(C)C(=O)NN/C=C1\C(=O)NC(=O)N(Cc2ccccc2)C1=O
[1]
  IC50: > 100 µM

## O=C1NC(=O)N(Cc2ccccc2)C(=O)/C1=C/NNC(=O)c1cccc2ccccc12
[1]
  IC50: 23.3 µM

## O=C1NC(=O)N(C2CC2)C(=O)/C1=C/NNC(=O)c1cccc2ncccc12
[1]
  IC50: 15.2 µM

## O=C1NC(=O)N(C2CCCCC2)C(=O)/C1=C/NNC(=O)c1cccnc1
[1]
  IC50: 30.4 µM

## O=C1NC(=O)N(Cc2ccccc2)C(=O)/C1=C/NNC(=O)c1cccnc1
[1]
  IC50: 28.8 µM

## CC(=O)NC[C@H]1CN(c2ccc(N3CCOCC3)c(F)c2)C(=O)O1 [LINEZOLID]
[3]
  MIC50: 1.67 µM (≈ 0.563 µg/mL)
[8]
  selectivity ratio: > 120

## CC[C@@H](C)N1C(=O)NC(=O)/C(=C\NNC(=O)c2ccncc2)C1=O
[1]
  IC50: 50.4 µM
[2]
  inhibition at 50 µM: 100%
[3]
  MIC50: 2.5 µM (≈ 0.83 µg/mL)
[4]
  inhibition at 10 µM: 100%
[5]
  inhibition at 10 µM: 100%
[6]
  viability at 24 h, 200 µM: 100%
[7]
  CC50 at 24 h: > 200 µM
[8]
  selectivity ratio: > 68.1

## O=C1NC(=O)N(c2ccccc2)C(=O)/C1=C/NNC(=O)c1cccnc1
[1]
  IC50: 32.1 µM

## O=C1NC(=O)N(Cc2ccccc2)C(=O)/C1=C/NNC(=O)c1ccncc1
[1]
  IC50: 10.2 µM
[2]
  inhibition at 50 µM: 100%
[3]
  MIC50: 3.15 µM (≈ 1.15 µg/mL)
[4]
  inhibition at 10 µM: 100%
[5]
  inhibition at 10 µM: 100%
[6]
  viability at 24 h, 200 µM: 100%
[7]
  CC50 at 24 h: > 200 µM
[8]
  selectivity ratio: > 63.5

## O=C(CO)NN/C=C1\C(=O)NC(=O)N(Cc2ccccc2)C1=O
[1]
  IC50: > 100 µM

## O=C1NC(=O)C(=CNNC(=O)c2ccncc2)C(=O)N1
[1]
  IC50: > 100 µM
[2]
  inhibition at 50 µM: 100%
[3]
  MIC50: 1.78 µM (≈ 0.491 µg/mL)
[4]
  inhibition at 10 µM: 100%
[5]
  inhibition at 10 µM: 100%
[6]
  viability at 24 h, 200 µM: 100%
[7]
  CC50 at 24 h: > 200 µM
[8]
  selectivity ratio: > 112

## O=C1NC(=O)N(C2CC2)C(=O)/C1=C/NNC(=O)c1ccncc1
[1]
  IC50: 20.3 µM
[2]
  inhibition at 50 µM: 100%
[3]
  MIC50: 1.12 µM (≈ 0.353 µg/mL)
[4]
  inhibition at 10 µM: 100%
[5]
  inhibition at 10 µM: 100%
[6]
  viability at 24 h, 200 µM: 100%
[7]
  CC50 at 24 h: > 200 µM
[8]
  selectivity ratio: > 179
[9]
  Activity: Dose-dependent-effect
[11]
  Kd: 2230 nM

## C=CCN1C(=O)NC(=O)/C(=C\NNC(=O)c2cccc3ncccc23)C1=O
[1]
  IC50: 11.1 µM

## O=C(Cc1ccccc1)NN/C=C1\C(=O)NC(=O)N(Cc2ccccc2)C1=O
[1]
  IC50: 12.3 µM

## O=C1NC(=O)N(C2CC2)C(=O)/C1=C/NNC(=O)c1ccnc2ccccc12
[1]
  IC50: 14.3 µM

## O=C1NC(=O)N(C2CCCCC2)C(=O)/C1=C/NNC(=O)c1ccncc1
[1]
  IC50: 16.7 µM
[2]
  inhibition at 50 µM: 100%
[3]
  MIC50: 5.34 µM (≈ 1.91 µg/mL)
[4]
  inhibition at 10 µM: 100%
[5]
  inhibition at 10 µM: 100%
[6]
  viability at 24 h, 200 µM: 100%
[7]
  CC50 at 24 h: > 200 µM
[8]
  selectivity ratio: > 37.5

## O=C1NC(=O)N(Cc2ccccc2)C(=O)/C1=C/NNC(=O)c1cccc(Cl)c1
[1]
  IC50: 24.3 µM

## C=CCN1C(=O)NC(=O)/C(=C\NNC(=O)c2ccnc3ccccc23)C1=O
[1]
  IC50: 12.8 µM

## O=C1NC(=O)N(Cc2ccccc2)C(=O)/C1=C/NNC(=O)c1ccc(Cl)cc1
[1]
  IC50: 23.9 µM

## O=C1NC(=O)N(Cc2ccccc2)C(=O)/C1=C/NNC(=O)c1cccc(O)c1
[1]
  IC50: 6.49 µM

## CN1C(=O)NC(=O)/C(=C\NNC(=O)c2ccncc2)C1=O
[1]
  IC50: 50 µM
[2]
  inhibition at 50 µM: 100%
[3]
  MIC50: 1.4 µM (≈ 0.405 µg/mL)
[4]
  inhibition at 10 µM: 100%
[5]
  inhibition at 10 µM: 100%
[6]
  viability at 24 h, 200 µM: 100%
[7]
  CC50 at 24 h: > 200 µM
[8]
  selectivity ratio: > 143

## O=C1NC(=O)N(Cc2ccccc2)C(=O)/C1=C/NNC(=O)c1cccc2ncccc12
[1]
  IC50: 12.6 µM

## O=C1NC(=O)N(Cc2ccccc2)C(=O)/C1=C/NNC(=O)c1ccnc2ccccc12
[1]
  IC50: 13.8 µM

## O=C1NC(=O)N(CCc2ccccc2)C(=O)/C1=C/NNC(=O)c1cccnc1
[1]
  IC50: 24.8 µM

## O=C1NC(=O)N(CCO)C(=O)/C1=C/NNC(=O)c1ccncc1
[1]
  IC50: 45.7 µM
[2]
  inhibition at 50 µM: 100%
[3]
  MIC50: 1.2 µM (≈ 0.384 µg/mL)
[4]
  inhibition at 10 µM: 100%
[5]
  inhibition at 10 µM: 100%
[6]
  viability at 24 h, 200 µM: 100%
[7]
  CC50 at 24 h: > 200 µM
[8]
  selectivity ratio: > 166
[9]
  Activity: Dose-dependent-effect
[11]
  Kd: 135 nM

## O=C1NC(=O)N(Cc2ccccc2)C(=O)/C1=C/NNC(=O)c1ccc2ccccc2c1
[1]
  IC50: 10.8 µM

## O=C(CCl)NN/C=C1\C(=O)NC(=O)N(Cc2ccccc2)C1=O
[1]
  IC50: > 100 µM

## O=C1NC(=O)N(Cc2ccccc2)C(=O)/C1=C/NNC(=O)c1ccc(O)cc1
[1]
  IC50: 8.56 µM

## C=CCN1C(=O)NC(=O)/C(=C\NNC(=O)c2ccccc2)C1=O
[1]
  IC50: 15.3 µM

## Nc1cccc(C(=O)NN/C=C2\C(=O)NC(=O)N(Cc3ccccc3)C2=O)c1
[1]
  IC50: 4.36 µM

## CCN1C(=O)NC(=O)/C(=C\NNC(=O)c2ccncc2)C1=O
[1]
  IC50: 52.3 µM
[2]
  inhibition at 50 µM: 100%
[3]
  MIC50: 1.36 µM (≈ 0.414 µg/mL)
[4]
  inhibition at 10 µM: 100%
[5]
  inhibition at 10 µM: 100%
[6]
  viability at 24 h, 200 µM: 100%
[7]
  CC50 at 24 h: > 200 µM
[8]
  selectivity ratio: > 147

## COc1ccc(C(=O)NN/C=C2\C(=O)NC(=O)N(Cc3ccccc3)C2=O)cc1
[1]
  IC50: 3.03 µM

## O=C1NC(=O)N(C2CCC2)C(=O)/C1=C/NNC(=O)c1ccncc1
[1]
  IC50: 18.1 µM
[2]
  inhibition at 50 µM: 100%
[3]
  MIC50: 2.37 µM (≈ 0.782 µg/mL)
[4]
  inhibition at 10 µM: 100%
[5]
  inhibition at 10 µM: 100%
[6]
  viability at 24 h, 200 µM: 100%
[7]
  CC50 at 24 h: > 200 µM
[8]
  selectivity ratio: > 84.2
